# Laboratory results taken from US20250282798A1, “HETEROARYL-SUBSTITUTED BICYCLIC COMPOUND AND USE THEREOF” (Medshine Discovery Inc., priority 2022, published 2025).
# What was measured:
# human HPK1 = human HPK1 (Homo sapiens (Human), UniProt Q92918); assay: 33P isotope-labeled kinase activity assay (Method 1); type: biochemical; conditions: HPK1 enzyme concentration 8.1 nM; ATP concentration 15 μM
# Description: Method 1: The IC50 value was assayed by ^33P isotope-labeled kinase activity assay to evaluate the inhibitory ability of a test compound on human HPK1.
# Enzyme buffer conditions: 50 mM Hepes (pH 7.5), 10 mM MgCl2, 1 mM EGTA, 0.01% Brij35, 2 mM DTT.
# Assay steps: A compound was diluted 3-fold with DMSO in a dilution plate, with a final initial concentration of […] and 10 concentration gradient points. The compound was diluted 50-fold into the kinase reaction buffer, and the mixture was shaken on a shaker for 20 minutes. The kinase was prepared with the enzyme reaction buffer. 2 μL of kinase was added to each well of a reaction plate. 1 μL of the diluted compound in the buffer was added to each well. The plate was sealed with a sealing film, centrifuged at 1000 g for 30 seconds, and placed at room temperature for 10 minutes. The mixed solution of ATP/MBP was prepared with the enzyme reaction buffer. 2 μL of the mixed solution of ATP/MBP was added to the reaction plate. The plate was sealed with a sealing film, and centrifuged at 1000 g for 30 seconds. The mixture in the plate was reacted at room temperature for 60 minutes. […] The plate was incubated at 25° C. for 40 min. […] The plate was incubated at 25° C. for 40 min. The RLU (relative luminescence unit) signal was read with a BMG microplate reader, and the signal intensity was used to characterize the activity of the kinase.
# Jurkat cells = assay: IL-2 assay of Jurkat cells (ELISA); type: cell-based; conditions: CD3/CD28 antibodies, 48 hours
# Description: The concentration of Jurkat cells growing in the logarithmic phase was adjusted to 1×10^6/mL. 100 μL/well of the cells was taken and plated in a 96-well round-bottom plate coated with CD3 antibodies. The cells were treated with different concentrations of the compounds with the addition of CD28 antibodies for 48 hours. The supernatant of the cell culture was collected, diluted 5-fold, and added to an ELISA plate coated with IL-2. The enzyme-linked immunosorbent assay was performed according to the kit instructions (Dakewe, 1110202). OD570 and OD450 were read with Envision, and the data were analyzed by Prism.
# Sequence of human HPK1 (Q92918 whole entry): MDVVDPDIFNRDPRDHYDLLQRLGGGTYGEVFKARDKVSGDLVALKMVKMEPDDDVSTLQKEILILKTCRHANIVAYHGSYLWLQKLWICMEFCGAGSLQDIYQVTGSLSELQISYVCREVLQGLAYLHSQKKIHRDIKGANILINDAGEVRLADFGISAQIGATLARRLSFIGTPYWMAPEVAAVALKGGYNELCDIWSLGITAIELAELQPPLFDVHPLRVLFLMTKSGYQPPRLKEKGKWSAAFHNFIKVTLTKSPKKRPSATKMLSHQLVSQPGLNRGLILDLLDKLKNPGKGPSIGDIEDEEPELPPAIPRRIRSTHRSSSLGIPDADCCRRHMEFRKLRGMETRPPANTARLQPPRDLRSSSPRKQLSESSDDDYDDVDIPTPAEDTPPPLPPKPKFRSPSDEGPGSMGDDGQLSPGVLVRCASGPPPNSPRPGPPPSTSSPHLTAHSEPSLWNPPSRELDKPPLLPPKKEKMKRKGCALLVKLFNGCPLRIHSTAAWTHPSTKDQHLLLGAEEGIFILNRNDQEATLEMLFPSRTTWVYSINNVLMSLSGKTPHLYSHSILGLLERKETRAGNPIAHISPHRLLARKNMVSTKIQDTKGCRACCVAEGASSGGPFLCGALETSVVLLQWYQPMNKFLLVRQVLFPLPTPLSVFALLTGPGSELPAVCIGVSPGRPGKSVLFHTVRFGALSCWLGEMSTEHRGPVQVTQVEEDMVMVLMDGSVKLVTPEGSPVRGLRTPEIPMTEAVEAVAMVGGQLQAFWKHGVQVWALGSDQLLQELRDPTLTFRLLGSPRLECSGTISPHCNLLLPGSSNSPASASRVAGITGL
SMILES,IC50 (human HPK1) [nM],EC50 (Jurkat cells) [nM],EC50 (Jurkat cells; Homo sapiens) [nM]
Cn1ccc2c(-c3ccc(Nc4ccc5c(n4)OC[C@H]4CNCCN54)c4c3CNC4=O)ccnc21 [Compound 5],3,710,–
CCN1CCN2c3ccc(Nc4ccc(-c5ccnc6c5ccn6C)c5c4C(=O)NC5)nc3OC[C@H]2C1 [Compound 6],8,–,320
